Measured values reported in publication PMC11079064, “Discovery of a brain penetrant small molecule antagonist targeting LPA1 receptors to reduce neuroinflammation and promote remyelination in multiple sclerosis” (Scientific Reports, 2024).
pEC50: −log10 of the molar value.

What was measured:
[1] = test system: mouse cortical brain slices; assay: Lysolecithin-treated mouse organotypic slice culture, Mbp transcript; format: cell-based; settings: lysolecithin 18 h, then 3 days treatment; read-out: EC50 of Mbp transcript increase
Method: We next used an ex vivo organotypic brain slice culture to assess remyelination following a demyelinating insult. Mouse cortical brain slices were treated with lysolecithin, which induces acute demyelination through a non-specific lipid-based mechanism. […] After 3 additional days, the brain slices were processed for Mbp.
Evaluation of Mbp transcript in mouse brain slice culture: Brains were collected from P17 mice and placed into ice cold HBSS containing 20% FBS. Brains were bisected sagittally and 250 µm coronal slices made with a manual tissue chopper. Only slices anterior to the hippocampus displaying a discrete corpus callosum were used. Approximately 12 slices are obtained per animal. Slices were laid on a 30 mm MilliCell organotypic culture insert in a 6-well culture dish containing 1.1 mL growth media (DMEM, 25% HBSS-Ca^2+/-Mg^2+, 25% heat inactivated horse serum, glucose (5 g/l), 25 mM ascorbic acid and penicillin/streptomycin). Slices were cultured in vitro for 72 h with a 50% media change at 24 h. After 72 h, slices were demyelinated using media containing 0.5 mg/ml lysolecithin for 18 h. […] Slices were snap frozen and RNA extracted using the RNEasy Mini kit (Qiagen). […] Data was calculated using 2^−ΔΔCt , normalizing to 18S RNA and vehicle.

rat OPCs = assay: OPC-macrophage Transwell co-culture; format: cell-based; settings: in presence of macrophages, 300 nM
Method: Following PDGF withdrawal, we observed a 41% decrease in the number of MBP^+ oligodendrocytes when co-cultured with macrophages.
OPCs were isolated as previously described. Cells were plated on the membrane layer of poly-L-lysine (Millipore Sigma, St. Louis, MO) coated Transwell culture plates (VWR, Radnor, PA) at a seeding density of 1 × 10^6 cells per well. Transwell culture plates have microporous membrane which allows for factors to flow between the top and bottom chamber. This permits us to minimize direct contact between the macrophage and OPCs while allowing for a constant, renewable source unlike conditioned media which can be depleted. […]
Isolation of macrophages. […] Differentiated oligodendrocytes were detected with a rat monoclonal antibody to MBP (Millipore Sigma, St. Louis, MO) and OPCs were detected with a rabbit monoclonal antibody to PDGFRα (Santa Cruz Biotechnology, Dallas, TX). Macrophages were detected with CD68 (Santa Cruz Biotechnology, Dallas, TX). […] Images were acquired using a 20× objective, each well was read in a 5 × 5 matrix. Data were analyzed using GraphPad Prism (La Jolla, CA) and statistical significance was determined by ANOVA.

[2] = test system: human cortical slice cultures; assay: Human cortical slice culture, Mbp transcript by qPCR; format: cell-based; settings: 9 days treatment; read-out: EC50 of Mbp increase by qPCR
Method: Cortical slices from regions containing both white and gray matter were generated from fresh human adult donor tissue and cultured for 10 days.
Human donor brain was received 14 h after death on wet ice. Upon receipt, the brain was immediately placed into-ice cold DPBS without calcium or magnesium. Cortical regions containing gray-white border were isolated then sliced on a McIlwain tissue chopper set at 400 µm thickness. […] Slices were then processed for qPCR or immunohistochemistry.
Evaluation of Mbp transcript in human brain slice culture: After compound treatment, slices were immediately transferred to lysis buffer and RNA extracted using the RNEasy Mini kit (Qiagen). Reverse transcription was performed using QScript (QuantaBio) followed by qPCR with Perfecta PCR SuperMix (QuantaBio) on a StepOne Plus Thermocycler (ABI). Primers used were as follows: 18S rRNA F: […] R: […]; Mbp: […] R: […]. Cycling parameters: 95 °C 30 s, then repeat 45×: 95 °C for 5 s, 60 °C for 15 s, followed by melt curve analysis. Data was calculated using 2^−ΔΔCt , normalizing to 18S RNA and vehicle.

LPA1 = biological target: T1, LPA1 (Mus musculus, UniProt P61793); assay: In vivo brain binding of [3H]-OPC3497 radioligand; settings: PIPE-791 dosed orally 2 h prior; 5 and 30 minutes after radioligand
T1 construct: from tissue; host or cells: mouse brain (homogenate; forebrain of dosed C57BL6/N mice in the in vivo studies)
Method: Supplemental Figure 3. OPC3497 is a suitable radioligand for evaluating LPA1 receptor occupancy. Following IV administration, [^3H]-OPC3497 binding in mouse brain increased rapidly, peaked 5 minutes post-dose and declined sharply over the evaluation period (2 h).

T1 sequence (P61793 whole entry): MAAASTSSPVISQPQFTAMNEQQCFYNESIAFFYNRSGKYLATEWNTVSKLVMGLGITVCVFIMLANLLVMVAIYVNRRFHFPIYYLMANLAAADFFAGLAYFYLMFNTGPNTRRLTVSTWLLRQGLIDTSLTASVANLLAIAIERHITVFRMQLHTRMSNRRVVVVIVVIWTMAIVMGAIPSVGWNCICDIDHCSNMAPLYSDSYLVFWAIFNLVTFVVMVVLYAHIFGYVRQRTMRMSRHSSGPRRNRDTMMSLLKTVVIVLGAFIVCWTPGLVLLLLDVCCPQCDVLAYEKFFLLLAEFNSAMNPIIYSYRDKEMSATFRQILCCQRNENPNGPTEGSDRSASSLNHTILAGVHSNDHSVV

pEC50 [1]: 7.92 | pEC50 [2]: 8.38 | effect on total [3H]-OPC3497 binding in brain (LPA1): significantly reduced
SMILES: COc1ccc(NC(=O)N(c2ccccc2C(C)C)C2CCC(C(=O)O)CC2)c(OC(F)F)n1 (stereo not shown) [PIPE-791]
increase in differentiation versus vehicle treated cultures (rat OPCs): 2.1 fold
